Data as given in patent US4117122A, “11-Aminoalkylmorphanthridin-11-ols” (Richardson-Merrell Inc., priority 1976, dated 1978).

Experiments:
[1] = Description: (§1) The compounds of the present invention are unique in pharmacologic activity.
[2] = oral LD50 in standard animal tests; format: in vivo; conditions: for LD50: in vivo, standard animal tests, approximately
Description: as §1

[3] = test system: reserpine-induced depression; test: antagonism of reserpine-induced depression in mice (standard antidepressant test); format: in vivo; conditions: for antidepressant potency relative to imipramine: compared with imipramine; for antagonism of reserpine-induced depression: mice, intraperitoneal doses of 5 to 30 mg/kg
Description: as §1

Question: For `CN(C)CCCC1(O)c2ccccc2C=Nc2ccccc21` (stereo not shown) [11-(3-Dimethylaminopropyl)morphanthridin-11-ol], which anticholinergic activity [1] is on record?
Answer: no significant anticholinergic activity

Question: What about the “oral LD50 compared with imipramine” value [2] of the same molecule?
Answer: substantially greater than that of imipramine

Question: What about the LD50 [2] of the same molecule?
Answer: ~130 mg/kg

Question: And the “antidepressant potency relative to imipramine” value [3]?
Answer: at least ten times more potent than that of imipramine

Question: And the “antagonism of reserpine-induced depression” value [3]?
Answer: antagonize reserpine-induced depression in mice

Question: Which results are given for `CN(C)CCCC1(O)c2ccccc2CNc2ccc(Cl)cc21` (stereo not shown) [2-Chloro-11-(3-dimethylaminopropyl)-5,6-dihydromorphanthridin-11-ol]?
Answer: anticholinergic activity [1]: no significant anticholinergic activity; oral LD50 compared with imipramine [2]: substantially greater than that of imipramine; LD50 [2]: ~175 mg/kg; antidepressant potency relative to imipramine [3]: at least ten times more potent than that of imipramine; antagonism of reserpine-induced depression [3]: antagonize reserpine-induced depression in mice
